Tested on: not listed separately
Test: logP by HPLC on reversed-phase column (EEC Directive 79/831 Annex V.A8)
Type: physicochemical
Conditions: HPLC on reversed-phase column (C 18), 40° C., 0.1% aqueous formic acid and acetonitrile, linear gradient 10% to 90% acetonitrile
Experimental: In table 1, the logP values were determined in accordance with EEC Directive 79/831 Annex V.A8 by HPLC (High Performance Liquid Chromatography) on a reversed-phase column (C 18), using the method described below: Temperature: 40° C.; Mobile phases: 0.1% aqueous formic acid and acetonitrile; linear gradient from 10% acetonitrile to 90% acetonitrile. Calibration was carried out using unbranched alkan-2-ones (comprising 3 to 16 carbon atoms) with known logP values (determination of the logP values by the retention times using linear interpolation between two successive alkanones). lambda-max-values were determined using UV-spectra from 200 nm to 400 nm and the peak values of the chromatographic signals.

Row | logP | SMILES
1 | 3.29 | Cc1nn(-c2ccccc2)nc1CN(C(=O)c1c(C(F)F)nn(C)c1F)C1CC1 [Example 131]
2 | 2.96 | Cn1nc(C(F)F)c(C(=O)NC2(c3cccs3)CCCC2)c1F [Example 34]
3 | 3.29 | Cn1nc(C(F)F)c(C(=S)N(Cc2c(Cl)cncc2Cl)C2CC2)c1F [Example 117]
4 | 2.23 | CC(c1cccnc1Cl)N(C(=O)c1c(C(F)F)nn(C)c1F)C1CC1 (stereo not drawn) [Example 50]
5 | 2.44 | Cn1nc(C(F)F)c(C(=O)N(Cc2ccnc3ccc(Cl)cc23)C2CC2)c1F [Example 137]
6 | 3.46 | Cn1nc(C(F)F)c(C(=O)N(Cc2cc(-c3ccc(Cl)cc3)no2)C2CC2)c1F [Example 153]
7 | 4.31 | Cc1c(CN(C(=S)c2c(C(F)F)nn(C)c2F)C2CC2)sc2ccccc12 [Example 124]
8 | 3.73 | Cn1nc(C(F)F)c(C(=O)N(Cc2csc3ccc(Cl)cc23)C2CC2)c1F [Example 143]
9 | 3.27 | CC(c1cnc(Cl)c(Cl)c1)N(C(=O)c1c(C(F)F)nn(C)c1Cl)C1CC1 (stereo not drawn) [Example 120]
10 | 2.32 | Cn1nc(C(F)F)c(C(=O)N(Cc2ccco2)C2CC2)c1F [Example 5]
11 | 2.75 | Cc1nc(C(F)(F)F)c(CN(C(=O)c2c(C(F)F)nn(C)c2F)C2CC2)s1 [Example 140]
12 | 2.59 | Cn1nc(C(F)F)c(C(=O)N(Cc2cccs2)C2CC2)c1F [Example 32]
13 | 4.26 | Cn1nc(C(F)F)c(C(=S)N(Cc2cc(C(F)(F)F)nc3ccccc23)C2CC2)c1F [Example 161]
14 | 3.17 | Cn1nc(C(F)F)c(C(=O)N(Cc2cc(CC(C)(C)C)no2)C2CC2)c1F [Example 106]

Tested on: Sphaerotheca fuliginea
Test: in vivo preventive test on Sphaerotheca fuliginea (cucumber)
Conditions: 500 ppm of active ingredient, evaluated 7 days after inoculation
Experimental: Solvent: 49 parts by weight of N,N-dimethylformamide Emulsifier: 1 part by weight of Alkylarylpolyglycolether To produce a suitable preparation of active compound, 1 part by weight of active compound is mixed with the stated amounts of solvent and emulsifier, and the concentrate is diluted with water to the desired concentration. To test for preventive activity, young plants are sprayed with the preparation of active compound at the stated rate of application. One day after this treatment, the plants are inoculated with an aqueous spore suspension of Sphaerotheca fuliginea. Then the plants are placed in a greenhouse at approximately 23° C. and a relative atmospheric humidity of approximately 70%. The test is evaluated 7 days after the inoculation. 0% means an efficacy which corresponds to that of the untreated control, while an efficacy of 100% means that no disease is observed.

Row | SMILES | Efficacy [%]
15 | Cc1nn(-c2ccccc2)nc1CN(C(=O)c1c(C(F)F)nn(C)c1F)C1CC1 [Example 131] | 97
16 | Cn1nc(C(F)F)c(C(=O)NC2(c3cccs3)CCCC2)c1F [Example 34] | 70
17 | Cn1nc(C(F)F)c(C(=S)N(Cc2c(Cl)cncc2Cl)C2CC2)c1F [Example 117] | 95
18 | CC(c1cccnc1Cl)N(C(=O)c1c(C(F)F)nn(C)c1F)C1CC1 (stereo not drawn) [Example 50] | 100
19 | Cn1nc(C(F)F)c(C(=O)N(Cc2ccnc3ccc(Cl)cc23)C2CC2)c1F [Example 137] | 90
20 | Cc1c(CN(C(=S)c2c(C(F)F)nn(C)c2F)C2CC2)sc2ccccc12 [Example 124] | 98
21 | Cn1nc(C(F)F)c(C(=O)N(Cc2csc3ccc(Cl)cc23)C2CC2)c1F [Example 143] | 95
22 | Cc1nc(C(F)(F)F)c(CN(C(=O)c2c(C(F)F)nn(C)c2F)C2CC2)s1 [Example 140] | 100
23 | Cn1nc(C(F)F)c(C(=O)N(Cc2cccs2)C2CC2)c1F [Example 32] | 95
24 | Cn1nc(C(F)F)c(C(=S)N(Cc2cc(C(F)(F)F)nc3ccccc23)C2CC2)c1F [Example 161] | 100

Tested on: Alternaria solani
Test: in vivo preventive test on Alternaria solani (tomato)
Conditions: 500 ppm of active ingredient, evaluated 7 days after inoculation
Experimental: Solvent: 49 parts by weight of N,N-dimethylformamide Emulsifier: 1 part by weight of Alkylarylpolyglycolether To produce a suitable preparation of active compound, 1 part by weight of active compound is mixed with the stated amounts of solvent and emulsifier, and the concentrate is diluted with water to the desired concentration. To test for preventive activity, young plants are sprayed with the preparation of active compound at the stated rate of application. One day after this treatment, the plants are inoculated with an aqueous spore suspension of Alternaria solani. The plants remain for one day in an incubation cabinet at approximately 22° C. and a relative atmospheric humidity of 100%. Then the plants are placed in an incubation cabinet at approximately 20° C. and a relative atmospheric humidity of 96%. The test is evaluated 7 days after the inoculation. 0% means an efficacy which corresponds to that of the untreated control while an efficacy of 100% means that no disease is observed.

Row | SMILES | Efficacy [%]
25 | Cc1nn(-c2ccccc2)nc1CN(C(=O)c1c(C(F)F)nn(C)c1F)C1CC1 [Example 131] | 90
26 | Cn1nc(C(F)F)c(C(=S)N(Cc2c(Cl)cncc2Cl)C2CC2)c1F [Example 117] | 100
27 | CC(c1cccnc1Cl)N(C(=O)c1c(C(F)F)nn(C)c1F)C1CC1 (stereo not drawn) [Example 50] | 95
28 | Cn1nc(C(F)F)c(C(=O)N(Cc2ccnc3ccc(Cl)cc23)C2CC2)c1F [Example 137] | 80
29 | Cn1nc(C(F)F)c(C(=O)N(Cc2cc(-c3ccc(Cl)cc3)no2)C2CC2)c1F [Example 153] | 90
30 | Cc1c(CN(C(=S)c2c(C(F)F)nn(C)c2F)C2CC2)sc2ccccc12 [Example 124] | 100
31 | Cn1nc(C(F)F)c(C(=O)N(Cc2csc3ccc(Cl)cc23)C2CC2)c1F [Example 143] | 95
32 | CC(c1cnc(Cl)c(Cl)c1)N(C(=O)c1c(C(F)F)nn(C)c1Cl)C1CC1 (stereo not drawn) [Example 120] | 90
33 | Cn1nc(C(F)F)c(C(=O)N(Cc2ccco2)C2CC2)c1F [Example 5] | 80
34 | Cc1nc(C(F)(F)F)c(CN(C(=O)c2c(C(F)F)nn(C)c2F)C2CC2)s1 [Example 140] | 80
35 | Cn1nc(C(F)F)c(C(=O)N(Cc2cccs2)C2CC2)c1F [Example 32] | 70
36 | Cn1nc(C(F)F)c(C(=O)N(Cc2cc(CC(C)(C)C)no2)C2CC2)c1F [Example 106] | 95

Tested on: Pyrenophora teres
Test: in vivo preventive test on Pyrenophora teres (barley)
Conditions: 500 ppm of active ingredient, evaluated 7-9 days after inoculation
Experimental: (§1) Solvent: 49 parts by weight of N,N-dimethylformamide Emulsifier: 1 part by weight of alkylaryl polyglycol ether To produce a suitable preparation of active compound, 1 part by weight of active compound is mixed with the stated amounts of solvent and emulsifier, and the concentrate is diluted with water to the desired concentration. To test for preventive activity, young plants are sprayed with the preparation of active compound at the stated rate of application. One day after this treatment, the plants are inoculated with an aqueous spore suspension of Pyrenophora teres. The plants remain for 48 hours in an incubation cabinet at 22° C. and a relative atmospheric humidity of 100%. Then the plants are placed in a greenhouse at a temperature of approximately 20° C. and a relative atmospheric humidity of approximately 80%. The test is evaluated 7-9 days after the inoculation. 0% means an efficacy which corresponds to that of the untreated control while an efficacy of 100% means that no disease is observed.

Row | SMILES | Efficacy [%]
37 | Cc1nn(-c2ccccc2)nc1CN(C(=O)c1c(C(F)F)nn(C)c1F)C1CC1 [Example 131] | 95
38 | Cn1nc(C(F)F)c(C(=S)N(Cc2c(Cl)cncc2Cl)C2CC2)c1F [Example 117] | 100
39 | CC(c1cccnc1Cl)N(C(=O)c1c(C(F)F)nn(C)c1F)C1CC1 (stereo not drawn) [Example 50] | 100
40 | Cn1nc(C(F)F)c(C(=O)N(Cc2ccnc3ccc(Cl)cc23)C2CC2)c1F [Example 137] | 100
41 | Cn1nc(C(F)F)c(C(=O)N(Cc2cc(-c3ccc(Cl)cc3)no2)C2CC2)c1F [Example 153] | 100
42 | Cc1c(CN(C(=S)c2c(C(F)F)nn(C)c2F)C2CC2)sc2ccccc12 [Example 124] | 100
43 | Cn1nc(C(F)F)c(C(=O)N(Cc2csc3ccc(Cl)cc23)C2CC2)c1F [Example 143] | 100
44 | CC(c1cnc(Cl)c(Cl)c1)N(C(=O)c1c(C(F)F)nn(C)c1Cl)C1CC1 (stereo not drawn) [Example 120] | 100
45 | Cn1nc(C(F)F)c(C(=O)N(Cc2ccco2)C2CC2)c1F [Example 5] | 95
46 | Cc1nc(C(F)(F)F)c(CN(C(=O)c2c(C(F)F)nn(C)c2F)C2CC2)s1 [Example 140] | 100
47 | Cn1nc(C(F)F)c(C(=O)N(Cc2cccs2)C2CC2)c1F [Example 32] | 100
48 | Cn1nc(C(F)F)c(C(=S)N(Cc2cc(C(F)(F)F)nc3ccccc23)C2CC2)c1F [Example 161] | 100
49 | Cn1nc(C(F)F)c(C(=O)N(Cc2cc(CC(C)(C)C)no2)C2CC2)c1F [Example 106] | 100

Tested on: Septoria tritici
Test: in vivo preventive test on Septoria tritici (wheat)
Conditions: 500 ppm of active ingredient, evaluated 21 days after inoculation
Experimental: Solvent: 49 parts by weight of N,N-dimethylacetamide Emulsifier: 1 part by weight of alkylaryl polyglycol ether To produce a suitable preparation of active compound, 1 part by weight of active compound or active compound combination is mixed with the stated amounts of solvent and emulsifier, and the concentrate is diluted with water to the desired concentration. To test for preventive activity, young plants are sprayed with the preparation of active compound or active compound combination at the stated rate of application. After the spray coating has been dried, the plants are sprayed with a spore suspension of Septoria tritici. The plants remain for 48 hours in an incubation cabinet at approximately 20° C. and a relative atmospheric humidity of approximately 100% and afterwards for 60 hours at approximately 15° C. in a translucent incubation cabinet at a relative atmospheric humidity of approximately 100%. The plants are placed in the greenhouse at a temperature of approximately 15° C. and a relative atmospheric humidity of approximately 80%. The test is evaluated 21 days after the inoculation. 0% means an efficacy which corresponds to that of the untreated control, while an efficacy of 100% means that no disease is observed.

Row | SMILES | Efficacy [%]
50 | CC(c1cccnc1Cl)N(C(=O)c1c(C(F)F)nn(C)c1F)C1CC1 (stereo not drawn) [Example 50] | 71
51 | Cn1nc(C(F)F)c(C(=O)N(Cc2csc3ccc(Cl)cc23)C2CC2)c1F [Example 143] | 100

Tested on: Blumeria graminis fsp. hordei
Test: in vivo preventive test on Blumeria graminis (barley)
Conditions: 500 ppm of active ingredient, evaluated 7 days after inoculation
Experimental: Solvent: 49 parts by weight of N,N-dimethylacetamide Emulsifier: 1 part by weight of alkylaryl polyglycol ether To produce a suitable preparation of active compound, 1 part by weight of active compound or active compound combination is mixed with the stated amounts of solvent and emulsifier, and the concentrate is diluted with water to the desired concentration. To test for preventive activity, young plants are sprayed with the preparation of active compound or active compound combination at the stated rate of application. After the spray coating has been dried, the plants are dusted with spores of Blumeria graminis fsp. hordei. The plants are placed in the greenhouse at a temperature of approximately 18° C. and a relative atmospheric humidity of approximately 80% to promote the development of mildew pustules. The test is evaluated 7 days after the inoculation. 0% means an efficacy which corresponds to that of the untreated control, while an efficacy of 100% means that no disease is observed.

Row | SMILES | Efficacy [%]
52 | CC(c1cccnc1Cl)N(C(=O)c1c(C(F)F)nn(C)c1F)C1CC1 (stereo not drawn) [Example 50] | 89
53 | Cn1nc(C(F)F)c(C(=O)N(Cc2csc3ccc(Cl)cc23)C2CC2)c1F [Example 143] | 94

Tested on: Leptosphaeria nodorum
Test: in vivo preventive test on Leptosphaeria nodorum (wheat)
Conditions: 500 ppm of active ingredient, evaluated 7-9 days after inoculation
Experimental: as §1, with “weight of N,N-dimethylacetamide Emulsifier: 1” for “weight of N,N-dimethylformamide Emulsifier: 1”, “sprayed with a preparation of” for “sprayed with the preparation of”, “suspension of Leptosphaeria nodorum. The plants” for “suspension of Pyrenophora teres. The plants”, “of approximately 22° C. and” for “of approximately 20° C. and”, “of approximately 90%. The test” for “of approximately 80%. The test”, “the untreated control, while an” for “the untreated control while an”

Row | SMILES | Efficacy [%]
54 | CC(c1cccnc1Cl)N(C(=O)c1c(C(F)F)nn(C)c1F)C1CC1 (stereo not drawn) [Example 50] | 71

Source: patent publication US9320276B2, “N-hetarylmethyl pyrazolylcarboxamides” (BAYER INTELLECTUAL PROPERTY GMBH, priority 2010, dated 2016)
